According to US20260000676A1, “CHROMAN DERIVATIVES AS ESTROGEN RECEPTOR DEGRADERS” (THE REGENTS OF THE UNIVERSITY OF MICHIGAN, priority 2022, published 2026):

Key:
[1] = molecular target: CRBN/DDB1 (Homo sapiens (Human), UniProt Q96SW2); assay: HTRF binding assay to CRBN/DDB1; settings: read-out: CRBN HTRF IC50
Description: The binding potency was determined using HTRF assay technology (Perkin Elmer). Compounds were serially diluted in DMSO and 0.2 μL volume was transferred to white 384-well plate.

[2] = molecular target: ERα_LBD(GST) (Homo sapiens (Human), UniProt P03372); assay: LanthaScreen TR-FRET ERα competitive binding assay; settings: read-out: ERα HTRF IC50
Description: • 1. ERα_LBD(GST) protein: 4 nM • 2. Tb Anti-GST: 2 nM • 3. Fluormone ES2 Green tracer: 3 nM • 4. Incubation time: 60 min • 5. DMSO: 1% • 6. Assay buffer: Adding 1M DTT to Nuclear receptor Buffer K for final 5 mM DTT. • 7. ZPE: 1% DMSO • 8. HPE: 1 μM ARV_471 • 9. LanthaScreen® TR-FRET ERα Competitive Binding Assay (ThermoFisher, #A15887)
• 1) Cherry pick 2 μL 10 mM compound stock to column 1 of a 384 intermediate plate • 2) Add 18 μL DMSO to column 1 to dilute compound to 1 mM. • 3) Transfer 10 μL 1 mM compound to column 1 of a LDV plate. • 2) Add 6 μl DMSO to column 2-10 of the LDV plate. • 3) Compounds undergo 3-fold serial dilution (3 μL+6 μL) in DMSO. • 4) Transfer 120 nL compound solution to assay plate. • ZPE: 120 nL 100% DMSO
Prepare complete nuclear receptor buffer K by adding 1 M DTT to nuclear receptor buffer K for a final concentration of 5 mM DTT. Complete nuclear receptor buffer K must be prepared fresh daily. Prepare 2× protein solution using complete nuclear receptor buffer K containing 8 nM ERα_LBD(GST) and 4 nM Tb Anti-GST. Then, prepare 2× Fluormone ES2 Green tracer (6 nM) using complete nuclear receptor buffer K. Add 6 μL 2× Fluormone ES2 green tracer into a compound plate (PerkinElmer 6008289) by dragonfly with one-tips-addition. Subsequently, add 6 μL 2× protein solution into the plate. Briefly and gently mix the 384-well plate on a plate shaker and incubate at room temperature protected from light for 60 min. The plate is sealed with a cover to minimize evaporation. Read the plate at wavelengths of 520 nm and 495 nm. Calculate the TR-FRET ratio by dividing the emission signal at 520 nm by the emission signal at 495 nm. Generate a binding curve by plotting the emission ratio vs. the log [ligand]. To determine the IC50 value, fit the data using XL-fit for a sigmoidal dose-response.

[3] = molecular target: T1, ER (Homo sapiens (Human), UniProt P03372); assay: In-cell western (ICW) ER degradation assay in MCF-7 cells; format: cell-based; settings: MCF7, 16 hrs; for DC50: ER degradation; for Dmax: MCF7, maximal ER degradation
[4] = molecular target: T1, ER; assay: In-cell western (ICW) ER degradation assay in T47D cells; format: cell-based; settings: 16 hrs; for DC50: ER degradation
[5] = test system: MCF-7 cells; assay: cells; settings: Homo sapiens, MCF7, 144 h, read-out: MCF7 Proliferation IC50 (nM)
Description: (§1) In vitro assay can be accomplished by MCF-7 and T47D Cell Titer Glo (CTG) assay. MCF-7 and T47D cell (From HDB) are cultured in multi-well white plate with phenol red-free RPMI1640+10% CS-FBS+1% P/S medium (e.g., at 1,000 cells/well). On day 0: Cells are treated with compound at certain concentrations (e.g., 0.5 to 10000 nM) (DMSO and Staurosporine as control). On day 0 and day 6: add Cell Titer Glo reagent and read on EnVision after 30 min incubation for data generation.
(§2) • 1) Cell culture medium: phenol red-free RPMI1640+10% CS-FBS, 1% P/S
(§3) Day-1: MCF-7 and T47D cell (From HDB) were cultured in 384-well white plate with phenol red-free RPMI1640+10% CS-FBS+1% P/S medium (1,000 cells/well) for overnight at 37° C., 5% CO2 incubator.
(§4) Day 0: Cells were treated at desired compound concentrations (0.5 to 10000 nM) (DMSO and Staurosporine as control) for Day 6 at 37° C., 5% CO2 incubator.
(§5) Day 0 and Day 6: add Cell TiterGlo reagent and read on EnVision after 30 min incubation for data generation.

[6] = test system: T47D cells; assay: cells; settings: Homo sapiens, 144 h, read-out: T47D Proliferation IC50 (nM)
Description: as §1, §2, §3, §4, §5

Chain of ERα_LBD(GST) (P03372 311-547): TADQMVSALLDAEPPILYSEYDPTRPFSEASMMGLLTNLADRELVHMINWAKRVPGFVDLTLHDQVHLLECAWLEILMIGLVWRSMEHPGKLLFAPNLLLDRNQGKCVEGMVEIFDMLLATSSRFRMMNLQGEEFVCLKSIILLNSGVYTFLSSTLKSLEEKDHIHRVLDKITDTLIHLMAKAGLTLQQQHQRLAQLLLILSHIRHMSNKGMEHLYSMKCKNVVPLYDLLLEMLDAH
T1 sequence (P03372 whole entry): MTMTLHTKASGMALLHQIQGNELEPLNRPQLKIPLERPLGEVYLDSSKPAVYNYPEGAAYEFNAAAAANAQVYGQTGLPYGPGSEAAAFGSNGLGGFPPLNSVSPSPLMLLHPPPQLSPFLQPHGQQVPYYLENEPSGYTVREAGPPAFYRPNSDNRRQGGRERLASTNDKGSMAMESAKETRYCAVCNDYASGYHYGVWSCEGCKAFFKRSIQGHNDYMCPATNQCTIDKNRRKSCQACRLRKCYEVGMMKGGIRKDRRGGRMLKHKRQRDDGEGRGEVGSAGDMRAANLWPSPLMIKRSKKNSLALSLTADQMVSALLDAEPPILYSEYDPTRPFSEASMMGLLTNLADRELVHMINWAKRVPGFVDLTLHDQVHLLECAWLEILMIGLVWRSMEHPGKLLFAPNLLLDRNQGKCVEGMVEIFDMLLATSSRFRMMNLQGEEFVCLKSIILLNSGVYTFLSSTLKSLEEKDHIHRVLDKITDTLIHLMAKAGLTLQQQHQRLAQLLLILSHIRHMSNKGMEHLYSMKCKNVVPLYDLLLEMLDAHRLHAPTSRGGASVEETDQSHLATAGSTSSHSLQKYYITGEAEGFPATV
Chain of CRBN/DDB1 (Q96SW2 whole entry): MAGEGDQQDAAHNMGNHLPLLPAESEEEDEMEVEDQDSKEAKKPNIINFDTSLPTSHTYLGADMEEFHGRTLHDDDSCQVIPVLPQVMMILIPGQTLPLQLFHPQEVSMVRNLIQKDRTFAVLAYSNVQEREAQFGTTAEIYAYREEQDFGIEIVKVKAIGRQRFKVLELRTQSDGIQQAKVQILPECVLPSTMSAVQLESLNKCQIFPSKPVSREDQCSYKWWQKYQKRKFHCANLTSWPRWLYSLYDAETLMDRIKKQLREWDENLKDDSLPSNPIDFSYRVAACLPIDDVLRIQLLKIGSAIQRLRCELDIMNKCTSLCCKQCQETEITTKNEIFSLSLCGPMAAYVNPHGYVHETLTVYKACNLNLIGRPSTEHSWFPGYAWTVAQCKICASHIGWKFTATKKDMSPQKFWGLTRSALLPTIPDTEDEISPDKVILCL
Chain of CRBN/DDB1 (Q16531 whole entry partner): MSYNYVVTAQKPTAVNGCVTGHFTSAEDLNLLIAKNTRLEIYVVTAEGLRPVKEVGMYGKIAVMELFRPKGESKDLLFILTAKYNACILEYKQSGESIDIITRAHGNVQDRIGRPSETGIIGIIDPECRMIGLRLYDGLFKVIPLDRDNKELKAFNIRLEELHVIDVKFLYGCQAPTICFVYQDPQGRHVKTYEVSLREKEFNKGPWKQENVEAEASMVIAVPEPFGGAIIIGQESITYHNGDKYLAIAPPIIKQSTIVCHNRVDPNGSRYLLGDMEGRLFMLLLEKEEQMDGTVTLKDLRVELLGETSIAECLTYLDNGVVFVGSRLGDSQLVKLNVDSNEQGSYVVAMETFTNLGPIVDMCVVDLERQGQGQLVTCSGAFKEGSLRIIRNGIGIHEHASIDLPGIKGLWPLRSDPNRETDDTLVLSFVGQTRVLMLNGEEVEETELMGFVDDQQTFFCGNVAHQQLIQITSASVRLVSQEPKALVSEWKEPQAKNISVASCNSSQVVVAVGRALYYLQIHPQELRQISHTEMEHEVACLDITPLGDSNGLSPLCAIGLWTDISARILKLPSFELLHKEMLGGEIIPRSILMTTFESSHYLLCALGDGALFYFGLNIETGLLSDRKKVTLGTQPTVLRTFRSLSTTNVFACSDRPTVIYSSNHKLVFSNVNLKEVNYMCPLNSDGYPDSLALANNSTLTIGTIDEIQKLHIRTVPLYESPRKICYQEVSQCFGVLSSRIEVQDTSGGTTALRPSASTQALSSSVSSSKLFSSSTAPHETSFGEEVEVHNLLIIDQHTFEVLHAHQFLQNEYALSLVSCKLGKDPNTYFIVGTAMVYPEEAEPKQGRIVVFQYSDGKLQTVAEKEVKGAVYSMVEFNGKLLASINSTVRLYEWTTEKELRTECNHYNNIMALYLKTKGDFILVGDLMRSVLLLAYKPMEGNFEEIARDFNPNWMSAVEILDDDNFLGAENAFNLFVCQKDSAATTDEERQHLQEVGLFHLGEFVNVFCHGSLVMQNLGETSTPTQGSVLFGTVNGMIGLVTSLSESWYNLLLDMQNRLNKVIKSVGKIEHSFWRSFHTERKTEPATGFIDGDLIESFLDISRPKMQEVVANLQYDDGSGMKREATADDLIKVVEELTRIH

Structure (SMILES)	IC50 [1]	IC50 [2]	DC50 [3]	Dmax [3]	DC50 [4]	Dmax ([4]; maximal ER degradation)	IC50 [5]	IC50 [6]	MCF7 Dmax % ([3]; maximal ER degradation)	T47D Dmax % ([4]; maximal ER degradation)
COc1cc(C(=O)NC2CCC(=O)NC2=O)ncc1N1CCN(CC2CCC3(CC2)CN(c2ccc([C@H]4c5ccc(O)cc5OC[C@H]4c4ccccc4)cc2)C3)CC1 (mixture of isomers) [Compound A117, N-(2,6-dioxopiperidin-3-yl)-5-(4-((2-(4-((3R,4S)-7-hydroxy-3-phenylchroman-4-yl)phenyl)-2-azaspiro[3.5]nonan-7-yl)methyl)piperazin-1-yl)-4-methoxypicolinamide]	0.5 to 5 µM	< 0.005 µM	< 0.001 µM	≥ 75%	< 0.001 µM	≥ 75%	< 50 nM	< 50 nM		
O=C1CC[C@H](N2Cc3c(ccc4c3OC[C@H]3CN(CC5CC6(CCN(c7ccc([C@H]8c9ccc(O)cc9OC[C@H]8c8ccccc8)cc7)CC6)C5)CCN43)C2=O)C(=O)N1 (single isomer, unassigned) [Compound A50]	0.05 to 0.5 µM	< 0.005 µM	0.001 to 0.01 µM	50 to 75%	< 0.001 µM	50 to 75%	50 to 500 nM	50 to 500 nM		
O=C1CCC(N2Cc3cc4c(cc3C2=O)OC[C@@H]2CN(CC3CCC5(CC3)CN(c3ccc([C@@H]6c7ccc(O)cc7OC[C@@H]6c6ccccc6)cc3)C5)CCN42)C(=O)N1 (single isomer, unassigned) [Compound A58]	0.5 to 5 µM	< 0.005 µM	0.001 to 0.01 µM		0.001 to 0.01 µM		50 to 500 nM	50 to 500 nM	C (“C”: 25%-50%)	B (“B”: >50% and <75%)
O=C1CCC(N2Cc3cc(N4CCN(CC5CCN(c6ccc([C@@H]7c8ccc(O)cc8OC[C@@H]7c7ccccc7)cc6)CC5)CC4)ccc3C2=O)C(=O)N1 (single isomer, unassigned) [Compound A62]	0.05 to 0.5 µM	< 0.005 µM	< 0.001 µM	50 to 75%	< 0.001 µM	50 to 75%	< 50 nM	< 50 nM		
O=C1CC[C@H](N2Cc3c(ccc4c3OC[C@H]3CN(CC5CCC6(CC5)CN(c5ccc([C@@H]7c8ccc(O)cc8OC[C@@H]7c7ccccc7)cc5)C6)CCN43)C2=O)C(=O)N1 (single isomer, unassigned) [Compound A115]	0.05 to 0.5 µM	< 0.005 µM	< 0.001 µM	≥ 75%	< 0.001 µM	≥ 75%	50 to 500 nM	50 to 500 nM		
O=C1CC[C@@H](N2Cc3cc4c(cc3C2=O)OC[C@H]2CN(CC3CCC5(CC3)CN(c3ccc([C@H]6c7ccc(O)cc7OC[C@H]6c6ccccc6)cc3)C5)CCN42)C(=O)N1 (single isomer, unassigned) [Compound A118]		< 0.005 µM	0.001 to 0.01 µM	≥ 75%	0.001 to 0.01 µM	≥ 75%	50 to 500 nM	50 to 500 nM		
O=C1CC[C@@H](N2Cc3cc4c(cc3C2=O)OCC2CN(CC3CCC5(CC3)CN(c3ccc([C@H]6c7ccc(O)cc7OC[C@H]6c6ccccc6)cc3)C5)CCN42)C(=O)N1 (stereo in doubt) [Compound A120, (R)-3-((R)-3-((2-(4-((3R,4S)-7-hydroxy-3-phenylchroman-4-yl)phenyl)-2-azaspiro[3.5]nonan-7-yl)methyl)-8-oxo-1,2,3,4,4a, 5,8,10-octahydro-9H-pyrazino[1′,2′:4,5][1,4]oxazino[2,3-f]isoindol-9-yl)piperidine-2,6-dione]		< 0.005 µM	0.001 to 0.01 µM	≥ 75%	< 0.001 µM	≥ 75%	50 to 500 nM	50 to 500 nM		
O=C1CC[C@@H](N2Cc3cc4c(cc3C2=O)OC[C@H]2CN(CC3CC5(CCN(c6ccc([C@@H]7c8ccc(O)cc8OC[C@@H]7c7ccccc7)cc6)CC5)C3)CCN42)C(=O)N1 [Compound A95, (R)-3-((R)-3-((7-(4-((3S,4R)-7-hydroxy-3-phenylchroman-4-yl)phenyl)-7-azaspiro[3.5]nonan-2-yl)methyl)-8-oxo-1,2,3,4,4a,5,8,10-octahydro-9H-pyrazino[1′,2′:4,5][1,4]oxazino[2,3-f]isoindol-9-yl)piperidine-2,6-dione]	0.5 to 5 µM		0.001 to 0.01 µM	50 to 75%	0.001 to 0.01 µM	50 to 75%	50 to 500 nM	< 50 nM		
O=C1CC[C@@H](N2Cc3cc4c(cc3C2=O)OC[C@@H]2CN(CC3CC5(CCN(c6ccc([C@H]7c8ccc(O)cc8OC[C@H]7c7ccccc7)cc6)CC5)C3)CCN42)C(=O)N1 [Compound A96, (R)-3-((S)-3-((7-(4-((3R,4S)-7-hydroxy-3-phenylchroman-4-yl)phenyl)-7-azaspiro[3.5]nonan-2-yl)methyl)-8-oxo-1,2,3,4,4a,5,8,10-octahydro-9H-pyrazino[1′,2′:4,5][1,4]oxazino[2,3-f]isoindol-9-yl)piperidine-2,6-dione]	0.05 to 0.5 µM		< 0.001 µM	50 to 75%	< 0.001 µM	50 to 75%	< 50 nM	< 50 nM		
O=C1CCC(N2Cc3c(ccc4c3OCC43CCN(CC4CC5(CCN(c6ccc([C@@H]7c8ccc(O)cc8OC[C@@H]7c7ccccc7)cc6)CC5)C4)CC3)C2=O)C(=O)N1 (stereo partly drawn) [Compound A113, 3-(1′-((7-(4-((3S,4R)-7-hydroxy-3-phenylchroman-4-yl)phenyl)-7-azaspiro[3.5]nonan-2-yl)methyl)-6-oxo-6,8-dihydro-2H,7H-spiro[furo[2,3-e]isoindole-3,4′-piperidin]-7-yl)piperidine-2,6-dione]	< 0.05 µM		< 0.001 µM	50 to 75%	< 0.001 µM	50 to 75%	< 50 nM	> 5000 nM		
O=C1CCC(N2Cc3c(ccc4c3OCC43CCN(CC4CCC5(CC4)CN(c4ccc([C@@H]6c7ccc(O)cc7OC[C@@H]6c6ccccc6)cc4)C5)CC3)C2=O)C(=O)N1 (stereo partly drawn) [Compound A114, 3-(1′-((2-(4-((3S,4R)-7-hydroxy-3-phenylchroman-4-yl)phenyl)-2-azaspiro[3.5]nonan-7-yl)methyl)-6-oxo-6,8-dihydro-2H,7H-spiro[furo[2,3-e]isoindole-3,4′-piperidin]-7-yl)piperidine-2,6-dione]	< 0.05 µM		< 0.001 µM	≥ 75%	< 0.001 µM	≥ 75%	< 50 nM	< 50 nM		
O=C1CC[C@@H](N2Cc3cc4c(cc3C2=O)OC[C@H]2CN(CC3CCC5(CC3)CN(c3ccc([C@@H]6c7ccc(O)cc7OC[C@@H]6c6ccccc6)cc3)C5)CCN42)C(=O)N1 [Compound A119, (R)-3-((R)-3-((2-(4-((3S,4R)-7-hydroxy-3-phenylchroman-4-yl)phenyl)-2-azaspiro[3.5]nonan-7-yl)methyl)-8-oxo-1,2,3,4,4a,5,8,10-octahydro-9H-pyrazino[1′,2′:4,5][1,4]oxazino[2,3-f]isoindol-9-yl)piperidine-2,6-dione]	0.5 to 5 µM		0.001 to 0.01 µM	50 to 75%	0.001 to 0.01 µM	50 to 75%	50 to 500 nM	500 to 5000 nM		
COc1cc(N2CCC(CN3CCC(c4ccc(N[C@@H]5CCC(=O)NC5=O)cc4)CC3)CC2)ccc1[C@@H]1c2ccc(O)cc2OC[C@@H]1c1ccccc1 [Compound A150, (R)-3-((4-(1-((1-(4-((3S,4R)-7-hydroxy-3-phenylchroman-4-yl)-3-methoxyphenyl)piperidin-4-yl)methyl)piperidin-4-yl)phenyl)amino)piperidine-2,6-dione]		< 0.005 µM	< 0.001 µM	25 to 50%	< 0.001 µM	25 to 50%	50 to 500 nM	50 to 500 nM		
